{"source": "patent US12365670B2", "about": "“GLP-IR agonists and uses thereof” (QILU REGOR THERAPEUTICS INC., priority 2018, dated 2025)", "biological_target": "GLP1R (Homo sapiens, UniProt P43220)", "sequence (P43220 24-463)": "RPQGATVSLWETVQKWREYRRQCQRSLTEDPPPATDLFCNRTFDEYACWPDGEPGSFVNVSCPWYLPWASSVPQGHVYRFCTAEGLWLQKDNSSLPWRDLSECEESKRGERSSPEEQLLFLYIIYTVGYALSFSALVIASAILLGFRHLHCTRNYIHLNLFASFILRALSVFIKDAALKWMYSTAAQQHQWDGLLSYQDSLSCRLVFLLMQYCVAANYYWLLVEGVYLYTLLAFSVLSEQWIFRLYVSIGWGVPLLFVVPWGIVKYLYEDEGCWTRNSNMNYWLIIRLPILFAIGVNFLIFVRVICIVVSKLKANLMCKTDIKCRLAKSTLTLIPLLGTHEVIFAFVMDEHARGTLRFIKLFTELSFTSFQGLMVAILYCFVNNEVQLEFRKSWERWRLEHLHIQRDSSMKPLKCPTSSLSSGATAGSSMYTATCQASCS", "test": "GLP1R cAMP HTRF assay, HEK293/GLP-1R/CRE/Luc (HEK293T cells)", "type": "cell-based", "settings": "concentration yielding 50% of the maximum cAMP level of the same compound", "procedure": "GLP-1R-mediated agonist activity was determined with a cell-based functional assay utilizing an HTRF (Homogeneous Time-Resolved Fluorescence) cAMP detection kit (cAMP Dynamic 2 Assay Kit; CisBio cat #62AM4PEC) that measures cAMP levels in the cell. The method is a competitive immunoassay between native cAMP produced by the cells and exogenous cAMP labeled with the dye d2. The tracer binding is visualized by a mAb anti-cAMP labeled with Cryptate. The specific signal (i.e., energy transfer) is inversely proportional to the concentration of cAMP in either standard or experimental sample.\nA cell line stably expressing the receptor was isolated. […]\nIBMX and BSA were freshly added on the day of assay]. A 10 μL sample of the cell suspension was counted on an Invitrogen Countess II to determine cell viability and cell count per mL. […]\nFollowing the 30 minute incubation, 5 μL of labeled d2 cAMP and 5 μL of anti-cAMP antibody (both diluted 1:20 in cell lysis buffer; as described in the manufacturer's assay protocol) were added to each well of the assay plate. […] Raw data were converted to nM cAMP by interpolation from a cAMP standard curve (as described in the manufacturer's assay protocol) and the percent effect was determined relative to a saturating concentration of the full agonist GLP-17-37 (10 nM) included on each plate. […]", "data": [{"molecule": "N#Cc1ccc(COc2cc(F)cc(C3=CCN(Cc4nc5ccc(C(=O)O)cc5n4C[C@@H]4CCO4)CC3)c2)c(F)c1", "note": "[Compound 218, (S)-2-((4-(3-((4-cyano-2-fluorobenzyl)oxy)-5-fluorophenyl)-5,6-dihydropyridin-1(2H)-yl)methyl)-1-(oxetan-2-ylmethyl)-1H-benzo[d]imidazole-6-carboxylic acid]", "values": [{"measurement": "EC50", "value": "≤ 150", "unit": "nM"}]}]}
